We go through 17 compounds from US20120316161A1, “NOVEL ANTIVIRAL COMPOUNDS” (KATHOLIEKE UNIVERSITEIT LEUVEN, priority 2009, published 2012).

Like-named read-outs stand apart in the source and are kept apart here.

For data set [1], the target named is T1, LEDGF-integrase interaction (His6-tagged HIV-1 integrase, flag-LEDGF/p75) (Human immunodeficiency virus type 1 group M subtype B, UniProt P04585).
T1 construct: His6-tagged HIV-1 integrase; made in house
In words: AlphaScreen assay of LEDGF-integrase interaction inhibition. It counts as binding. The settings on record: compound at 100 μM. Here is the method: The AlphaScreen assay was performed according to the manufacturer's protocol (Perkin Elmer, Benelux). Reactions were performed in 25 μl final volume in 384-well Optiwell™ microtiter plates (Perkin Elmer). The reaction buffer contained 25 mM Tris-HCl (pH 7.4), 150 mM NaCl, 1 mM MgCl2, 0.01% (v/v) Tween-20 and 0.1% (w/v) bovine serum albumin. His6-tagged integrase (300 nM final concentration) was incubated with the compounds for 30 min at 4° C. The compounds were added at varying concentrations spanning a wide range from 0.1 up to 100 μM. Afterwards 100 nM flag-LEDGF/p75 was added and incubation was prolonged for an additional hour at 4° C. Subsequently 5 μl of Ni-chelate—coated acceptor beads and 5 μl anti-flag donor beads were added to a final concentration of 20 μg/ml of both beads. Proteins and beads were incubated for 1 h at 30° C. in order to allow association to occur. Exposure of the reaction to direct light was omitted as much as possible and the emission of light from the acceptor beads was measured in the EnVision plate reader (Perkin Elmer, Benelux) and analyzed using the EnVision manager software. IN/DNA binding was analyzed in a similar setting using His6-tagged integrase (1 μM final concentration) and an oligodeoxynucleotide mimicking the IN ELISA oligonucleotide substrate (30 nM final concentration). Counterscreens with JPO2 or PogZ, respectively, were essentially performed as described previously. Expression and purification of recombinant proteins: His6-tagged HIV-1 integrase, 3xflag-tagged LEDGF/p75, MBP-JPO2 and MBP-PogZ were purified for AlphaScreen applications as described previously.

The test system of data set [2] is MT-4 cells. In words: Cytotoxicity in mock-infected MT-4 cells (MTT). It counts as cell-based. The protocol: (§1) A rapid and automated assay procedure was used for the in vitro evaluation of anti-HIV agents. An HTLV-1 transformed T4-cell line MT-4, which was previously shown to be highly susceptible to and permissive for HIV infection, served as the target cell line. Inhibition of the HIV-induced cytopathogenic effect was used as the end point. The viability of both HIV-and mock-infected cells was assessed spectrophotometrically via in situ reduction of 3-(4,5-dimethylthiazol-2-yl)-2,5-diphenyltetrazolium bromide (MTT). […] The percent protection achieved by the compound in HIV-infected cells was calculated by the following formula: […]
(§2) whereby (ODT)HIV is the optical density measured with a given concentration of the test compound in HIV-infected cells; (ODC)HIV is the optical density measured for the control untreated HIV-infected cells; (ODC)MOCK is the optical density measured for the control untreated mock-infected cells; all optical density values were determined at 540 nm. […] The ratio of CC50 to EC50 was defined as the selectivity index (SI).

Data set [3] concerns HIV. In words: microbe, parasite or virus in culture. It counts as cell-based. Here is the method: A rapid and automated assay procedure was used for the in vitro evaluation of anti-HIV agents. An HTLV-1 transformed T4-cell line MT-4, which was previously shown to be highly susceptible to and permissive for HIV infection, served as the target cell line. Inhibition of the HIV-induced cytopathogenic effect was used as the end point. The viability of both HIV-and mock-infected cells was assessed spectrophotometrically via in situ reduction of 3-(4,5-dimethylthiazol-2-yl)-2,5-diphenyltetrazolium bromide (MTT). The 50% cytotoxic concentration (CC50 in μg/ml) was defined as the concentration of compound that reduced the absorbance of the mock-infected control sample by 50%. The percent protection achieved by the compound in HIV-infected cells was calculated by the following formula: […]
whereby (ODT)HIV is the optical density measured with a given concentration of the test compound in HIV-infected cells; (ODC)HIV is the optical density measured for the control untreated HIV-infected cells; (ODC)MOCK is the optical density measured for the control untreated mock-infected cells; all optical density values were determined at 540 nm. The dose achieving 50% protection according to the above formula was defined as the 50% inhibitory concentration (EC50 in μg/ml or μM). The ratio of CC50 to EC50 was defined as the selectivity index (SI). […] Examples of inhibition of cell proliferation by particular compounds of the invention can be found by looking at the respective CC50 values in the MT-4 cell line. Cells: MT-4 cells (Miyoshi et al., 1982) were grown and maintained in RPMI 1640medium supplemented with 10% heat-inactivated fetal calf serum, 2 mM 1-glutamine, 0.1% sodium bicarbonate, and 20æg of gentamicin per ml.
Viruses: The HIV-1 (NL4.3) strain (Adachi et al., 1986) is a molecular clone obtained from the National Institutes of Health (Bethesda, Md.). The HIV-2 (ROD) (Barr, -Sinoussi et al., 1983) stock was obtained from culture supernatant of HIV-2 infected cell lines.

A short description of data set [4]: Cytotoxicity in mock-infected MT-4 cells (MTT). It counts as cell-based. Conditions: human, mock-infected MT-4 cells. The protocol: as §1, §2
The mark [5] stands for this setting: mock-infected MT-4 cells, read-out: CC50.
Setting [6] is: 50% protection of HIV-infected MT-4 cells, read-out: EC50.
Setting [7] is: Human immunodeficiency virus 1, MT4, 50% protection of HIV-infected MT-4 cells, read-out: EC50.
[8] abbreviates: Human immunodeficiency virus 1, MT4.

As to “2-[2-tert-butyl-7-(1,2-dihydroacenaphthylen-5-yl)-5-methylpyrazolo[1,5-a]pyrimidin-6-yl]acetic acid [CPD-111]”, the “Alpha screen % (100 μM)” value in data set [1] was determined as 89%. In addition, in data set [2] (setting [5]), the CC50 turned out to be 50 µM.
“2-[2-tert-butyl-7-(1,2-dihydroacenaphthylen-5-yl)-5-methylpyrazolo[1,5-a]pyrimidin-6-yl]acetic acid [CPD-112]”: the “Alpha screen % (100 μM)” value in data set [1] is given as 93%. The CC50 in data set [2] (setting [5]) amounted to 59 µM.
As to “2-[2-tert-butyl-7-(2-hydroxy-4-methylphenyl)-5-methylpyrazolo[1,5-a]pyrimidin-6-yl]acetic acid [CPD-117]”, the “Alpha screen % (100 μM)” value in data set [1] worked out at 95%. For the same compound, the EC50 in data set [3] (setting [6]) was 2.06 µM. For the same compound, the CC50 in data set [2] (setting [5]) was determined as 116 µM.
Regarding `Cc1ccc(-c2c(C(CCCC(F)(F)F)C(=O)O)c(C)nc3cc(C(C)(C)C)nn23)cc1` (stereo not drawn) [CPD-81, 2-(2-tert-butyl-7-p-tolyl-5-methylpyrazolo[1,5-a]pyrimidin-6-yl)-6,6,6-trifluorohexanoic acid], in data set [1], the “Alpha screen % (100 μM)” value was determined as 65%. Further, in data set [3] (setting [7]), the EC50 came out at 16.4 µM. Besides, the CC50 in data set [4] is 56 µM.
As for `CCCC(C(=O)O)c1c(C)nc2cc(C(C)(C)C)nn2c1-c1ccc2c(c1)CCCO2` (stereo not drawn) [CPD-85], the “Alpha screen % (100 μM)” value in data set [1] turned out to be 76%. Besides, in data set [3] (setting [7]), the EC50 stood at 2.54 µM. Also, the CC50 in data set [4] was 125 µM.
The corresponding values for `CCCC(C(=O)O)c1c(C)nc2c(Cl)c(C(C)(C)C)nn2c1-c1ccc(C)cc1` (stereo not drawn) [CPD-87, 2-(2-tert-butyl-3-chloro-7-p-tolyl-5-methylpyrazolo[1,5-a]pyrimidin-6-yl)pentanoic acid] are 67%, 2.33 µM and 38.3 µM.
On to `COCCC(C(=O)O)c1c(C)nc2cc(C(C)(C)C)nn2c1-c1ccc(C)cc1` (stereo not drawn) [CPD-88, 2-(2-tert-butyl-7-p-tolyl-5-methylpyrazolo[1,5-a]pyrimidin-6-yl)-4-methoxybutanoic acid], for which, in data set [1], the “Alpha screen % (100 μM)” value worked out at 44%. For the same compound, in data set [3] (setting [7]), the EC50 is 38 µM. In data set [4], this compound showed a CC50 greater than 250 µM.
With `CCCC(C(=O)O)c1c(C)nc2cc(C(C)(C)C)nn2c1-c1ccc(C(C)C)cc1` (stereo not drawn) [CPD-89, 2-(2-tert-butyl-5-methyl-7-(4-iso-propylphenyl)pyrazolo[1,5-a]pyrimidin-6-yl)pentanoic acid], the “Alpha screen % (100 μM)” value in data set [1] was found to be 89%. Besides, in data set [3] (setting [8]), the 50% effective concentration (EC50) came to 24 µM. The CC50 in data set [4] worked out at 139 µM.
For the compound `CCCC(C(=O)O)c1c(C)nc2cc(C(C)(C)C)nn2c1-c1ccc(C(F)(F)F)cc1` (stereo not drawn) [CPD-90, 2-(2-tert-butyl-5-methyl-7-(4-trifluoromethylphenyl)pyrazolo[1,5-a]pyrimidin-6-yl)pentanoic acid], the “Alpha screen % (100 μM)” value in data set [1] turned out to be 70%. For the same compound, the EC50 in data set [3] (setting [7]) amounted to 6.15 µM. In data set [4], this compound displayed a 50% cytotoxic concentration (CC50) of 22 µM.
In the case of `CCCC(C(=O)O)c1c(C)nc2cc(C(C)(C)C)nn2c1-c1ccc(F)cc1F` (stereo not drawn) [CPD-91, 2-(2-tert-butyl-7-(2,4-difluorophenyl)-5-methylpyrazolo[1,5-a]pyrimidin-6-yl)pentanoic acid], the “Alpha screen % (100 μM)” value in data set [1] was found to be 90%. In data set [3] (setting [7]), the EC50 amounted to 15.7 µM. Moreover, the CC50 in data set [4] came to 85.5 µM.
For `CCCC(C(=O)O)c1c(C)nc2cc(C(C)(C)C)nn2c1-c1ccc(C)cc1Cl` (stereo not drawn) [CPD-92, 2-(2-tert-butyl-7-(2-chloro-4-methylphenyl)-5-methylpyrazolo[1,5-a]pyrimidin-6-yl)pentanoic acid] the same measures were 95%, 9.13 µM and 60.5 µM.
For the compound `CCCC(C(=O)O)c1c(C)nc2cc(C(C)(C)C)nn2c1-c1ccc(C)cc1N` (stereo not drawn) [CPD-93, 2-(7-(2-amino-4-methylphenyl)-2-tert-butyl-5-methylpyrazolo[1,5-a]pyrimidin-6-yl)pentanoic acid], in data set [1], the “Alpha screen % (100 μM)” value was found to be 90%. The compound further had a concentration giving a half-maximal response (EC50) in data set [3] (setting [8]) of 7.4 µM. The compound also registered a CC50 in data set [4] of 119 µM.
For `CCCC(C(=O)O)c1c(C)nc2cc(C(C)(C)C)nn2c1-c1ccc(OC)cc1F` (stereo not drawn) [CPD-95, 2-(2-tert-butyl-7-(2-fluoro-4-methoxyphenyl)-5-methylpyrazolo[1,5-a]pyrimidin-6-yl)pentanoic acid], the “Alpha screen % (100 μM)” value in data set [1] amounted to 83%. Besides, the EC50 in data set [3] (setting [7]) worked out at 7.48 µM. The compound also came in with a cytotoxic concentration (CC50) in data set [4] of 115 µM.
In the case of `CCCC(C(=O)O)c1c(C)nc2cc(C(C)(C)C)nn2c1-c1ccc(C)cc1C` (stereo not drawn) [CPD-98, 2-(2-tert-butyl-7-(2,4-dimethylphenyl)-5-methylpyrazolo[1,5-a]pyrimidin-6-yl)pentanoic acid], in data set [1], the “Alpha screen % (100 μM)” value worked out at 89%. This compound also showed an EC50 in data set [3] (setting [8]) of 5.91 µM. This compound had a CC50 in data set [4] of 69 µM.
On to `CCCC(C(=O)O)c1c(C)nc2c(C)c(C(C)(C)C)nn2c1-c1ccc(C)cc1` (stereo not drawn) [CPD-99, 2-(2-tert-butyl-3,5-dimethyl-7-p-tolylpyrazolo[1,5-a]pyrimidin-6-yl)pentanoic acid], for which the “Alpha screen % (100 μM)” value in data set [1] came to 81%. For the same compound, the EC50 in data set [3] (setting [7]) was 1.01 µM. The compound also came in with a CC50 in data set [4] of 34 µM.
With `CCCC(C(=O)O)c1c(C)nc2c(-c3ccccc3)c(C(C)(C)C)nn2c1-c1ccc(C)cc1` (stereo not drawn) [CPD-100, 2-(2-tert-butyl-5-methyl-3-phenyl-7-p-tolylpyrazolo[1,5-a]pyrimidin-6-yl)pentanoic acid], the “Alpha screen % (100 μM)” value in data set [1] was found to be 92%. Also, in data set [3] (setting [7]), the EC50 was determined as 6.24 µM. In data set [4], this compound yielded a CC50 of 23 µM.
For the compound “Ethyl 2-(2-benzyl-5-methyl-7-p-tolyl-[1,2,4]-triazolo[1,5-a]pyrimidin-6-yl)pentanoate [CPD-123]”, the EC50 in data set [3] (setting [6]) was determined as 26.1 µM. Also, the CC50 in data set [2] came to 126 µM.
